Measured values: PubChem BioAssay AID1996
≈ marks a conversion by molar mass, not a printed value.

Conditions: buffer; pH 7.4; 200.0 µM
`CCN(C(=O)c1ccc(Br)cc1)c1ccccc1` gave a solubility kinetic of 32.4 µg/mL (≈ 107 µM).
Compound `COc1ccc(C)cc1NC(=O)CCCN1C(=O)NC(C)(C)C1=O` has a solubility kinetic of over 50 µg/mL.
Compound `Cc1ccc(-c2nc(NCCN(C)C)c3ccccc3n2)cc1` has a solubility kinetic of over 46 µg/mL.
`CCN1C(=O)/C(=C\c2ccncc2)SC1=S` gave a solubility kinetic of 6.2 µg/mL (≈ 24.8 µM).
Work on `CCN(CC(=O)NCc1cccs1)C(=O)c1ccc(C)o1` yielded a solubility kinetic of over 46 µg/mL.
For `NC(=O)c1cc(S(=O)(=O)NCc2ccc(F)cc2)cs1`, the solubility kinetic was 47 µg/mL (≈ 150 µM).
For `c1ccc2[nH]c(CCCc3nc4ccccc4[nH]3)nc2c1`, the solubility kinetic was 29.7 µg/mL (≈ 107 µM).
With `COc1cc(OC)c(C(=O)OCC(=O)Nc2ccc(S(=O)(=O)N3CCOCC3)cc2)cc1OC` the solubility kinetic was 9.6 µg/mL (≈ 19.4 µM).
For `COc1ccc2c(c1)CC/C2=N\OC(=O)c1ccccc1C`, the solubility kinetic was under 0.6 µg/mL.
`O=C(O)c1ccc(NC(=O)c2ccco2)c(NC(=O)c2ccco2)c1` showed a solubility kinetic of over 51 µg/mL.
`CSc1ncccc1C(=O)OCC(=O)Nc1cccc(S(=O)(=O)N2CCOCC2)c1` gave a solubility kinetic of 34.7 µg/mL (≈ 76.9 µM).
Compound `CCOc1ccc(-c2ncncc2-c2ccccc2OC)c(O)c1` has a solubility kinetic of 34 µg/mL (≈ 105 µM).
With `Cc1ccc(Oc2ccccc2NC(=O)C2=COCCO2)cc1` the solubility kinetic was 15.8 µg/mL (≈ 50.7 µM).
Work on `CCC(=O)Nc1nc(NCc2ccccc2OC)n(-c2ccccc2)n1` yielded a solubility kinetic of over 52.7 µg/mL.
With `CCOC(=O)N1CCN(CCC(=O)Nc2ccccc2)CC1` the solubility kinetic was 32.2 µg/mL (≈ 105 µM).
In the case of `CSc1ncc(Cl)c(C(=O)Nc2c(C)cccc2C)n1`, the solubility kinetic is reported as 2.3 µg/mL (≈ 7.47 µM).
Compound `COCC(=O)N(Cc1nc2sc(C)c(C)c2c(=O)[nH]1)C1CCCCC1` has a solubility kinetic of 47.4 µg/mL (≈ 130 µM).
For `Cc1ccc(N=C2NC(=O)/C(=C/c3cccnc3)S2)cc1C`, the solubility kinetic was under 0.2 µg/mL.
`Cc1ccc(C(C)NC(=O)c2ccncc2)cc1C` (stereo unspecified) gave a solubility kinetic of over 38.1 µg/mL.
For `CCOC(=O)CN/C=C(\C#N)c1ccc(F)cc1`, the solubility kinetic was 36.4 µg/mL (≈ 147 µM).
Work on `CCOC(=O)Nc1ccc2c(c1)nc1n2CCN(CCOC)C1` yielded a solubility kinetic of over 47.8 µg/mL.
For `O=C(COC(=O)/C=C/c1ccccc1)NC1CCCC1`, the solubility kinetic was 17.2 µg/mL (≈ 62.9 µM).
For `O=S(=O)(NCCN1CCCC1)c1ccc(Cl)cc1`, the solubility kinetic was 40.8 µg/mL (≈ 141 µM).
With `CCCCOc1ccc(C(=O)N2CCNC(=O)C2)cc1` the solubility kinetic was over 41.5 µg/mL.
`O=[N+]([O-])c1cccnc1Sc1ccc(Cl)cc1` showed a solubility kinetic of 0.7 µg/mL (≈ 2.62 µM).
Compound `CCC(C(=O)OCC(=O)NC(=O)NC(C)(C)C)c1ccccc1` (stereo unspecified) has a solubility kinetic of 2 µg/mL (≈ 6.24 µM).
Work on `CC1CCC(C(C)C)C(OCC(O)CNC(C)C)C1.Cl` (stereo unspecified) yielded a solubility kinetic of over 46.2 µg/mL.
For `O=C(CSc1ncccn1)Nc1ccc2c(c1)OCO2`, the solubility kinetic was over 43.4 µg/mL.
`O=C(Cn1ccc(=O)[nH]c1=O)NCCO` gave a solubility kinetic of over 32 µg/mL.
Work on `Cc1ccc(N2CCN(c3ncccc3[N+](=O)[O-])CC2)c(C)c1` yielded a solubility kinetic of 1.4 µg/mL (≈ 4.48 µM).
Work on `Cc1cccc(NC(=O)C2CCCCN2S(=O)(=O)c2ccccc2)c1C` (stereo unspecified) yielded a solubility kinetic of 45.1 µg/mL (≈ 121 µM).
Work on `CCCCCC#CCN1CCN(C23CC4CC(CC(C4)C2)C3)CC1` yielded a solubility kinetic of 42.8 µg/mL (≈ 130 µM).
With `COc1ccc(C(=O)NCCCCc2ccccc2)cc1` the solubility kinetic was 2.9 µg/mL (≈ 10.2 µM).
Compound `Cc1occc1C(=O)Nc1ccc(S(N)(=O)=O)cc1` has a solubility kinetic of over 42 µg/mL.
With `COc1ccc2c(ccn2S(=O)(=O)c2ccccc2)c1` the solubility kinetic was 1.6 µg/mL (≈ 5.57 µM).
Work on `Cc1ccc(C2=NC3(CCCC3)NC2=S)cc1` yielded a solubility kinetic of 2.2 µg/mL (≈ 9 µM).
With `O=C(c1cccc2c1-c1ccccc1C2)N1CCCCC1` the solubility kinetic was over 41.6 µg/mL.
Compound `Cc1cccc(S(=O)(=O)Nc2ccc3c(c2)OCCO3)c1` has a solubility kinetic of 28.7 µg/mL (≈ 94 µM).
In the case of `CN(C)C(=O)c1cc(C(=O)c2ccc(Cl)cc2Cl)c[nH]1`, the solubility kinetic is reported as 23.4 µg/mL (≈ 75.2 µM).
Compound `O=C(NCc1cccc(Cl)c1)NC(=O)c1csc([N+](=O)[O-])c1` has a solubility kinetic of under 0.2 µg/mL.
`Cc1ccc(S(=O)(=O)NC(=O)NC(C)Cc2ccccc2)cc1` (stereo unspecified) gave a solubility kinetic of over 49.9 µg/mL.
In the case of `O=C(COc1cccnc1[N+](=O)[O-])c1c[nH]c2ccccc12`, the solubility kinetic is reported as 4.3 µg/mL (≈ 14.5 µM).
Work on `O=C(Nc1cccc(Cl)c1)C1COc2ccccc2O1` (stereo unspecified) yielded a solubility kinetic of 3.1 µg/mL (≈ 10.7 µM).
With `COc1ccc(CNC(=O)CN(C)CC(=O)Nc2ccccc2Br)cc1` the solubility kinetic was over 63 µg/mL.
With `Cc1ccc(N2CC(=O)N(CC(=O)O)C2=O)cc1` the solubility kinetic was over 37.2 µg/mL.
With `O=C(C1CCC(=O)N1Cc1cccs1)N1CCOCC1` (stereo unspecified) the solubility kinetic was over 44.2 µg/mL.
With `COc1ccc(C(=O)O)cc1S(=O)(=O)N(C)CCc1ccccn1` the solubility kinetic was over 52.6 µg/mL.
`O=C(O/N=C1\CCS(=O)(=O)c2sccc21)c1ccc(F)cc1` gave a solubility kinetic of 1.2 µg/mL (≈ 3.54 µM).
`O=S(=O)(c1cccc2cccc(Cl)c12)N1CCCC1` showed a solubility kinetic of 15 µg/mL (≈ 50.7 µM).
Work on `CCOc1ccc(N2C(=O)CC(=O)NC2=O)cc1` yielded a solubility kinetic of over 37.2 µg/mL.
Work on `CCOc1ccc(C(=O)Nc2ccc(CN3CCOCC3)cc2)cc1Cl` yielded a solubility kinetic of 27.5 µg/mL (≈ 73.4 µM).
With `Cc1noc(C)c1C(=O)Nc1nc(-c2ccc(F)cc2)cs1` the solubility kinetic was 10.3 µg/mL (≈ 32.5 µM).
With `COc1ccc(-c2csc(NC(=O)CN3C(=O)CCC3=O)n2)cc1` the solubility kinetic was 11.7 µg/mL (≈ 33.9 µM).
For `CCc1ccccc1NC(=O)c1ccc(S(=O)(=O)N2CCCC2)cc1`, the solubility kinetic was 12.2 µg/mL (≈ 34 µM).
`CCOC(=O)c1c(C)noc1-c1ccco1` gave a solubility kinetic of 7.5 µg/mL (≈ 33.9 µM).
Compound `O=S1(=O)CCC(NC(=S)Nc2ccc3ccccc3c2)C1` (stereo unspecified) has a solubility kinetic of 15.3 µg/mL (≈ 47.7 µM).
With `CC1=C/C(=C/N(C)C)C(=O)O1` the solubility kinetic was 15.7 µg/mL (≈ 102 µM).
Work on `CCOC(=O)CCCC(=O)N1CCOCCOCCOCC1` yielded a solubility kinetic of over 47.6 µg/mL.
`N#CC(C(=O)c1ccccc1)=C1SCCS1` showed a solubility kinetic of 1.8 µg/mL (≈ 7.28 µM).
In the case of `COc1ccc(Cc2cnc(N)s2)cc1`, the solubility kinetic is reported as 31.8 µg/mL (≈ 144 µM).
For `O=C(CN1CCCCCC1)Nc1ccc(Cl)cn1`, the solubility kinetic was 35.3 µg/mL (≈ 132 µM).
